Reference: patent publication US10064840B2, “Pharmaceutical composition for the treatment of multi-drug resistant infections” (priority 2014, dated 2018)
Like-named read-outs stand apart in the source and are kept apart here.

Legend:
Format in all cases: cell-based
[1] = system: Staphylococcus aureus 1199B (Nor A overexpressing); experiment: Nor A efflux pump inhibition, broth checkerboard combination with ciprofloxacin; conditions: for MEC4 (minimum effective concentration of compound that brings about 4 fold reduction in the MIC of Ciprofloxacin): in combination with ciprofloxacin
Description: Combination studies were performed by a broth checkerboard method A series of twofold dilutions of test ciprofloxacin in Muller Hinton Broth (pH 7.0) was tested in combination with twofold dilutions of boeravinone B in 96-well microtiter plates. The final concentrations of ciprofloxacin ranged from 0.03 mg/L/ml to 64 mg/L and for boeravinone B from 0.8 mg/L to 50 mg/L. Piperine at a same concentration range as that of boeravinone B was used as standard EPI. Nor A overexpressing derivative of a clinical isolate (SA-1199B) obtained from S. aureus strain ATCC No. 29213 (American Type Culture Collection Manassas, Va., USA) was kindly gifted by Dr G. W. Kaatz (Wayne State University School of Medicine, Detroit, Mich., USA). Bacterial inocula were prepared by adjusting the inoculum density of the overnight grown Staphylococcus aureus 1199B (Nor A overexpressing) to 0.5 McFarland (˜1.5×10^8 CFU/mL of Escherichia coli). These inocula were diluted 1:100 in sterile normal saline and 100 μl of these diluted inocula was dispensed in each well. The final bacterial inoculum reached in each well was equal 5×10^5 CFU/mL. The plates were incubated at 37° C. for 24 hrs. The MIC was read visually as the lowest concentration of ciprofloxacin inhibiting the growth of bacteria as evident from the absence of turbidity.

[2] = system: Staphylococcus aureus Mupr-1 (Mde A overexpressing); experiment: Mde A efflux pump inhibition, broth checkerboard combination with mupirocin; conditions: for MIC: Staphylococcus aureus
Description: Staphylococcus aureus Mupr-1 (Mde A overexpressing) was prepared in-house from SA-1199-Wild type clinical isolate which was gifted by Prof. Dr G. W. Kaatz (Wayne State University School of Medicine, Detroit, Mich., USA) by serially passaging SA-1199 strain on mupirocin. Combination studies were performed by a broth checkerboard method. A series of twofold dilutions of test mupirocin in Muller Hinton Broth (pH 7.0) was tested in combination with twofold dilutions of boeravinone B in 96-well microtiter plates. The final concentrations of mupirocin ranged from 0.03 mg/L/ml to 64 mg/L and for boeravinone B from 0.8 mg/L to 50 mg/L. Bacterial inocula were prepared by adjusting the inoculum density of the overnight grown Staphylococcus aureus Mup^r-1 (Mde A overexpressing) to 0.5 McFarland (˜1.5×10^8 CFU/mL of Escherichia coli). Mde A overexpressing derivative S. aureus strain was prepared in lab upon mupirocin treatment (Mup^r-1) from S. aureus strain ATCC No. 29213 (American type culture collection Manassas, Va., USA). These inocula were diluted 1:100 in sterile normal saline and 100 μl of these diluted inocula was dispensed in each well. The final bacterial inoculum reached in each well was equal 5×10^5 CFU/mL. The plates were incubated at 37° C. for 24 hrs. The MIC was read visually as the lowest concentration of mupirocin inhibiting the growth of bacteria as evident from the absence of turbidity. […]

[3] = system: Staphylococcus aureus SA-K2191 (Msr A overexpressing); experiment: Msr A efflux pump inhibition, broth checkerboard combination with erythromycin
Description: Combination studies were performed by a broth checkerboard method. A series of two-fold dilutions of test Erythromycin in Muller Hinton Broth (pH 7.0) was tested in combination with twofold dilutions of boeravinone B in 96-well microtiter plates. The final concentrations of erythromycin ranged from 0.03 mg/L/ml to 64 mg/L and for boeravinone B from 0.8 mg/L to 50 mg/L. MsrA overexpressing S. aureus derivative (RN4220) obtained by transforming with pSK265 into which the gene for MsrA has been cloned from S. aureus ATCC 29213 (American type culture collection Manassas, Va., USA) was kindly gifted by Dr G. W. Kaatz (Wayne State University School of Medicine, Detroit, Mich., USA). Bacterial inocula were prepared by adjusting the inoculum density of the overnight grown Staphylococcus aureus SA-K2191 (Msr A overexpressing) to 0.5 McFarland (˜1.5×10^8 CFU/mL of Escherichia coli). These inocula were diluted 1:100 in sterile normal saline and 100 μl of these diluted inocula was dispensed in each well. The final bacterial inoculum reached in each well was equal 5×10^5 CFU/mL. The plates were incubated at 37° C. for 24 hrs. The MIC was read visually as the lowest concentration of erythromycin inhibiting the growth of bacteria as evident from the absence of turbidity. […]

[4] = at 25 μM concentration of boeravinone B

## Cc1c(O)cc2oc3c(c(=O)c2c1O)-c1ccccc1OC3O (centres unmarked) [Boeravinone B, 6,9,11-trihydroxy-10-methyl[1]benzopyrano[3,4-b][1]benzopyran-12(6H)-one]
[1]; at highest concentration (50 μM) of boeravinone B
  decrease of the MIC of ciprofloxacin: 8 folds
[1]; combination with ciprofloxacin, MDR S. aureus, concentration not given
  enhancement in antibacterial activity of ciprofloxacin: 8 folds
[1]; compound concentration 0.7 μM
  MIC of ciprofloxacin in presence of compound: 8 µg/mL
[1]; compound concentration 1.5 μM
  MIC of ciprofloxacin in presence of compound: 8 µg/mL
[1]; compound concentration 3.12 μM
  MIC of ciprofloxacin in presence of compound: 4 µg/mL
[1]; compound concentration 6.25 μM
  MIC of ciprofloxacin in presence of compound: 4 µg/mL
[1]; compound concentration 12.5 μM
  MIC of ciprofloxacin in presence of compound: 2 µg/mL
[1]; compound concentration 25 μM
  MIC of ciprofloxacin in presence of compound: 1 µg/mL
[1]; compound concentration 50 μM
  MIC of ciprofloxacin in presence of compound: 1 µg/mL
[1]
  MEC4 (minimum effective concentration of compound that brings about 4 fold reduction in the MIC of Ciprofloxacin): 12.5 µM
[2]; read-out: MIC of mupirocin in presence of compound, compound concentration 0.7 μM
  MIC: 256 µg/mL
[2]; read-out: MIC of mupirocin in presence of compound, compound concentration 1.5 μM
  MIC: 256 µg/mL
[2]; read-out: MIC of mupirocin in presence of compound, compound concentration 3.12 μM
  MIC: 256 µg/mL
[2]; read-out: MIC of mupirocin in presence of compound, compound concentration 6.25 μM
  MIC: 256 µg/mL
[2]; read-out: MIC of mupirocin in presence of compound, compound concentration 12.5 μM
  MIC: 128 µg/mL
[2]; read-out: MIC of mupirocin in presence of compound, compound concentration 25 μM
  MIC: 64 µg/mL
[2]; read-out: MIC of mupirocin in presence of compound, compound concentration 50 μM
  MIC: 64 µg/mL
[2]; [4]
  reduction of MIC of mupirocin: 4 fold
[2]; combination with mupirocin, MDR S. aureus, concentration not given
  enhancement in antibacterial activity of mupirocin: 4 folds
[2]; in combination with mupirocin
  MEC4 (minimum effective concentration of boeravinone B that brings about 4 fold reduction in the MIC of Mupirocin): 25 µM
[3]; [4]
  reduction of MIC of erythromycin: 4 folds
[3]; combination with erythromycin, MDR S. aureus, concentration not given
  enhancement in antibacterial activity of erythromycin: 4 folds
[3]; compound concentration 0.7 μM
  MIC of Erythromycin in presence of compound: 64 µg/mL
[3]; compound concentration 1.5 μM
  MIC of Erythromycin in presence of compound: 64 µg/mL
[3]; compound concentration 3.12 μM
  MIC of Erythromycin in presence of compound: 64 µg/mL
[3]; compound concentration 6.25 μM
  MIC of Erythromycin in presence of compound: 64 µg/mL
[3]; compound concentration 12.5 μM
  MIC of Erythromycin in presence of compound: 32 µg/mL
[3]; compound concentration 25 μM
  MIC of Erythromycin in presence of compound: 16 µg/mL
[3]; compound concentration 50 μM
  MIC of Erythromycin in presence of compound: 16 µg/mL
[3]; in combination with erythromycin
  MEC4 (minimum effective concentration of boeravinone B that brings about 4 fold reduction in the MIC of erythromycin): 25 µM

## O=C(O)c1cn(C2CC2)c2cc(N3CCNCC3)c(F)cc2c1=O [Ciprofloxacin, ciprofloxacin, reference compound]
[1]; Staphylococcus aureus, 24 h, read-out: MIC Ciprofloxacin Alone
  MIC: 8 µg/mL

## CC[C@H]1OC(=O)[C@H](C)[C@@H](O[C@H]2C[C@@](C)(OC)[C@@H](O)[C@H](C)O2)[C@H](C)[C@@H](O[C@@H]2O[C@H](C)C[C@H](N(C)C)[C@H]2O)[C@](C)(O)C[C@@H](C)C(=O)[C@H](C)[C@@H](O)[C@]1(C)O [Erythromycin, erythromycin, reference compound]
[3]; Staphylococcus aureus, 24 h, read-out: MIC of Erythromycin Alone
  MIC: 64 µg/mL

## C/C(=C\C(=O)OCCCCCCCCC(=O)O)C[C@@H]1OC[C@H](C[C@@H]2O[C@H]2[C@@H](C)[C@H](C)O)[C@@H](O)[C@H]1O [mupirocin, reference compound]
[2]; 24 h, read-out: MIC of mupirocin Alone, mupirocin alone, S. aureus Mupr-1, 24 hrs
  MIC: 256 µg/mL

## O=C(/C=C/C=C/c1ccc2c(c1)OCO2)N1CCCCC1 [Piperine, reference compound]
[1]; compound concentration 0.7 μM
  MIC of ciprofloxacin in presence of compound: 8 µg/mL
[1]; compound concentration 1.5 μM
  MIC of ciprofloxacin in presence of compound: 8 µg/mL
[1]; compound concentration 3.12 μM
  MIC of ciprofloxacin in presence of compound: 8 µg/mL
[1]; compound concentration 6.25 μM
  MIC of ciprofloxacin in presence of compound: 8 µg/mL
[1]; compound concentration 12.5 μM
  MIC of ciprofloxacin in presence of compound: 8 µg/mL
[1]; compound concentration 25 μM
  MIC of ciprofloxacin in presence of compound: 4 µg/mL
[1]; compound concentration 50 μM
  MIC of ciprofloxacin in presence of compound: 4 µg/mL
[1]
  MEC4 (minimum effective concentration of compound that brings about 4 fold reduction in the MIC of Ciprofloxacin): >50 µM
